Read-outs that look alike come from different tables or passages of the source.
Tests used:
total YAP = biological target: T1, total YAP (Homo sapiens, UniProt P46937); experiment: Total YAP ELISA in GBM cells; format: cell-based
T1 construct: endogenous in cells; host or cells: LN229
Procedure: (§1) Levels of total YAP were determined via ELISA. […] Immunoprecipitates were immunoblotted for the indicated proteins. […] Cells were treated with the indicated concentrations of inhibitor for 18 h and mRNA extracted for real time RT-PCR analyses. Measurements were performed in quadruplicate and means and+S.D. are shown. […] Cells were treated with (+) or without (−) NSC682769 (100 nM, 18 h) and harvested and separated into cytoplasmic and nuclear cellular fractions. Cytoplasmic versus nuclear material was subsequently immunoblotted for the indicated proteins. […] Values in top right corner of panels correspond to the percentage of nuclear localized YAP. Cells were grown on coverslips and treated with NSC682769. Cells were permeabilized and stained using primary antibody to YAP1 and FITC-conjugated secondary. Nuclei were stained with DAPI. Scale bar, 20 μm.
Surface plasmon resonance (SPR), ELISA, YAP-TEAD reporter activity, cellular fractionation, and immunofluorescence analyses. SPR experiments were carried out on a Nicoya OpenSPR™ instrument using immobilized YAP on a carboxyl-coated sensor. Binding was observed as the change in response units (RU) as analyte was injected at a flow rate of 10 μl/min at 25° C. TraceDrawer™ was used for kinetic analyses. The PathScan® total-YAP ELISA kit was obtained from Cell Signaling and used according to the manufacturer's instructions. YAP-TEAD reporter activity was determined as previously described (Kim N G, Gumbiner B M (2015) J Cell Biol 210: 503-515). HOP-flash contains multiple copies of wild-type TEAD-binding sites with a minimal promoter upstream of a luciferase reporter gene. Luciferase activity was measured via a luciferase assay system (Promega). Nuclear-cytoplasmic fractionation was performed according to Dignam et al. (Dignam J D, et al. (1983) Nucleic Acids Res 11: 1475-1489). Briefly, the buffers used were kept on ice and centrifugations were done at 4° C. with soft braking. After a single wash with PBS, cells were scraped with PBS (containing 1 mM DTT and 1× protease inhibitor) and harvested by centrifugation at 1000×g for 15 min. The cell pellet was gently resuspended with five times the volume of pellet with buffer A (10 mM HEPES, pH 7.9, 1.5 mM MgCl2, 10 mM KCl, 0.5 mM DTT, and 1× protease inhibitor) and incubated on ice for 15 min, followed by homogenization (Wheaton). Cell lysis was monitored by trypan blue staining. The cell lysate was spun at 1000×g for 5 min to collect the pellet as the nuclear fraction and the supernatant as the cytoplasmic fraction. […]

YAP [1] = biological target: T2, YAP (Homo sapiens, UniProt P46937); experiment: Western blot of YAP and TEAD levels in GBM lines; format: cell-based; conditions: LN229, T98G, GBM39; 18 h, increasing concentrations
T2 construct: endogenous in cells; host or cells: LN229, T98G, GBM39
Procedure: as §1, with “Cells were grown on coverslips and treated with NSC682769. Cells were permeabilized and stained using primary antibody to YAP1 and FITC-conjugated secondary. Nuclei were stained with DAPI. Scale bar, 20 μm.” left out
(§2) Protein and mRNA analyses, immunoprecipitation, in vitro bead-coupled inhibitor binding assays and HPLC analyses. […] Antigen-antibody complexes were detected using appropriate horseradish peroxidase-conjugated secondary antibodies (GE Healthcare) and enhanced chemiluminescence (Amersham ECL Prime). […] For quantitative RT-PCR, extraction of RNA was performed using Trizol® (Life Technologies). Total RNA was then quantified and integrity assessed using an Agilent 2100 Bioanalyzer (Agilent Technology). […] SYBR® Green quantitative PCR (Millipore Sigma) was performed in triplicate in 96-well optical plates on an ABI Prism 7000 Sequence Detection System (Life Technologies) according to the manufacturer's instructions. […]

YAP [2] = experiment: Western blot of YAP and TEAD levels in GBM lines; format: cell-based, human; conditions: LN229, T98G, GBM39; 18 h, increasing concentrations
Procedure: as §1, with “Cells were grown on coverslips and treated with NSC682769. Cells were permeabilized and stained using primary antibody to YAP1 and FITC-conjugated secondary. Nuclei were stained with DAPI. Scale bar, 20 μm.” left out
as §2

T1 sequence (P46937 whole entry): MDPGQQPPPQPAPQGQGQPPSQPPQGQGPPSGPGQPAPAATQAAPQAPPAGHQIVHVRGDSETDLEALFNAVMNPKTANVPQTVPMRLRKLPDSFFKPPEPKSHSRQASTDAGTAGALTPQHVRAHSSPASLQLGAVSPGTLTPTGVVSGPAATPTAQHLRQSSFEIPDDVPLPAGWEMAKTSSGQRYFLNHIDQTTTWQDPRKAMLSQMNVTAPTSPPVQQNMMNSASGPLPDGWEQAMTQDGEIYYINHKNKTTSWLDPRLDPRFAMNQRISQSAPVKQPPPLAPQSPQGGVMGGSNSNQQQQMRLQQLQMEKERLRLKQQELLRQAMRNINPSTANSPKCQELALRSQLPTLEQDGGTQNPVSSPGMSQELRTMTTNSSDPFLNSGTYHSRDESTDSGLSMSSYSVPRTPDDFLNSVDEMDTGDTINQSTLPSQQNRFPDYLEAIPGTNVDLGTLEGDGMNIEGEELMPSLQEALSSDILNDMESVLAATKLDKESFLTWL

## COc1ccc(-c2cc(-c3ccccc3)nc3c2CC(=O)Nc2ccccc2-3)cc1OC [NSC682769]
Total YAP; GBM39 cells, read-out: IC50, inhibition of total YAP (ELISA)
  DC50: 5.1 nM
Total YAP; LN229 cells, read-out: IC50, inhibition of total YAP (ELISA)
  DC50: 11.8 nM
Total YAP; LN229 cells, read-out: IC50 for YAP (ELISA)
  DC50: 11.8 nM
Total YAP; patient-derived GBM39 cells, read-out: IC50 for YAP (ELISA)
  DC50: 5.1 nM
YAP [1]
  YAP levels: decreased
YAP [2]
  TEAD levels: unaffected

From patent US20240108634A1, “COMPOSITIONS AND METHODS FOR INHIBITING YAP” (The United States Government as represented by the …, priority 2021, published 2024)
